According to ChEMBL document CHEMBL5365456, “Isolation and biological activity of natural chalcones based on antibacterial mechanism classification” (Bioorg Med Chem, 2023):
Values after ≈ are worked out from the molar mass of the structure shown.

System: Mycobacterium tuberculosis
Experiment: Antitubercular activity against multi-drug-resistant Mycobacterium tuberculosis M22 assessed as bacterial growth inhibition measured for 9 days
Assay type: functional
Settings: M22, 216 h, time 9 day

With `O=C(CCc1ccc(O)cc1)c1c(O)cc(O)cc1O` [PHLORETIN] the MIC90 was 182 µM (≈ 49.9 µg/mL).
